Reference: ChEMBL document CHEMBL1909046, “DrugMatrix in vitro pharmacology data”

Tests used:
[1] = biological target: T1, Alpha-2C adrenergic receptor (Homo sapiens, UniProt P18825); experiment: DRUGMATRIX: Adrenergic Alpha-2C radioligand binding (ligand: [3H] MK-912); format: cell membranes, Sf9, Membrane; conditions: for Ki: read-out: Ki; on IC50: call rule not given here
T1 sequence (P18825 whole entry): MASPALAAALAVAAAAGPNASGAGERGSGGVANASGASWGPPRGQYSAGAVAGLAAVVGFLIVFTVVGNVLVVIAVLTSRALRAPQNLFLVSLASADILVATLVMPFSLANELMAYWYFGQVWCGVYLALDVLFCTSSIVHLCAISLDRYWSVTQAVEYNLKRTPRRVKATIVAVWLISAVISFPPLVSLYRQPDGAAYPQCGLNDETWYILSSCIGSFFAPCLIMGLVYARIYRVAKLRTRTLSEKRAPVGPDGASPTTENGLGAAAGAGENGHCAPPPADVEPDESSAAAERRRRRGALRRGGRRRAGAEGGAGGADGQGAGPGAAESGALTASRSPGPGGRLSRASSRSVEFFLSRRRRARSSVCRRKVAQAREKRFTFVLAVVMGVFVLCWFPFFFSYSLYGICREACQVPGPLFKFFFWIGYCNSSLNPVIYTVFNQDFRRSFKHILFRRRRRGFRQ

[2] = biological target: T2, C-X-C chemokine receptor type 1 (Homo sapiens, UniProt P25024); further: in other assays of this panel Not Active means under 50% inhibition at 10 µM
T2 sequence (P25024 whole entry): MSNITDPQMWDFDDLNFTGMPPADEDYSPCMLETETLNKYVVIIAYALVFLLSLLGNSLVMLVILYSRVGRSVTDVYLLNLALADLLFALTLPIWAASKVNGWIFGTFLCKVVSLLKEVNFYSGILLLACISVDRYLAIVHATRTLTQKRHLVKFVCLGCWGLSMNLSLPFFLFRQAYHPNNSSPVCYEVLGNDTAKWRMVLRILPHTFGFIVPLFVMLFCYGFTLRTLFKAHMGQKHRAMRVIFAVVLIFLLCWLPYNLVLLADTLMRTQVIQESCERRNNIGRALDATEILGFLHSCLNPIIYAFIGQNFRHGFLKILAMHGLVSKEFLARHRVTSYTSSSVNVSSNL

[3] = biological target: Prostaglandin G/H synthase 1 (Homo sapiens, UniProt P23219); experiment: biochemical; format: tissue-based, Platelet;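 further: inhibition of COX-1 enzyme activity, with arachidonic acid supplied as substrate; in other assays of this panel Not Active means under 50% inhibition at 10 µM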
Chain of Prostaglandin G/H synthase 1 (P23219 whole entry): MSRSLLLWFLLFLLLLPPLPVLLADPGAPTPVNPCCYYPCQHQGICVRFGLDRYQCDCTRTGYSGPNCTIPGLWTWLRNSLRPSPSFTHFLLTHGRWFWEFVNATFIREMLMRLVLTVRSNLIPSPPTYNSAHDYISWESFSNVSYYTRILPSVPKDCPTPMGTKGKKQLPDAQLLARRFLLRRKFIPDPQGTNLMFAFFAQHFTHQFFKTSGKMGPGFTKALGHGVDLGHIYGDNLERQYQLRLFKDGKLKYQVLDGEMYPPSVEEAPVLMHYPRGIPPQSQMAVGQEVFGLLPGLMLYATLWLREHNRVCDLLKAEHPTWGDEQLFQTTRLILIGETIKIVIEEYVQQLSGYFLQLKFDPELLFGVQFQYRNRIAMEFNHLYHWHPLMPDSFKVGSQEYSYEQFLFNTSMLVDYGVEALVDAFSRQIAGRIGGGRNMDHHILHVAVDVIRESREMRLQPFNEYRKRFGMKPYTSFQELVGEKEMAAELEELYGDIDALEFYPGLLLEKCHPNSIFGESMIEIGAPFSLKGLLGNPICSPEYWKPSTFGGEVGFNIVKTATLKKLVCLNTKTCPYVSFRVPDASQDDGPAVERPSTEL

D(3) dopamine receptor = D(3) dopamine receptor (Homo sapiens, UniProt P35462); experiment: DRUGMATRIX: Dopamine D3 radioligand binding (ligand: [3H] Spiperone); format: cell membranes, CHO, Membrane; conditions: for Ki: read-out: Ki
Chain of D(3) dopamine receptor (P35462 whole entry): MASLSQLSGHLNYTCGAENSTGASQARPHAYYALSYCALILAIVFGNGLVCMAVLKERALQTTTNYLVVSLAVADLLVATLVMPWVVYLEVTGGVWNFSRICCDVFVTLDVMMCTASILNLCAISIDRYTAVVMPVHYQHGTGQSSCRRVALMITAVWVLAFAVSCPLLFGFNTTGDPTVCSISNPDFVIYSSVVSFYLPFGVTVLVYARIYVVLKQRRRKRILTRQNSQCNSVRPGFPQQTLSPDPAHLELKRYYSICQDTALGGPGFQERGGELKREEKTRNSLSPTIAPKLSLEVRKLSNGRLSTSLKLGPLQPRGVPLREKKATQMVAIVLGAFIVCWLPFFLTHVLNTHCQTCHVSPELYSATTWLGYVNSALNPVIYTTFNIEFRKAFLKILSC

[4] = biological target: T3, Muscarinic acetylcholine receptor M4 (Homo sapiens, UniProt P08173); format: cell membranes, CHO-K1, Membrane; conditions: for Ki: read-out: Ki; on all read-outs here: in other assays of this panel Not Active means under 50% inhibition at 10 µM
T3 sequence (P08173 whole entry): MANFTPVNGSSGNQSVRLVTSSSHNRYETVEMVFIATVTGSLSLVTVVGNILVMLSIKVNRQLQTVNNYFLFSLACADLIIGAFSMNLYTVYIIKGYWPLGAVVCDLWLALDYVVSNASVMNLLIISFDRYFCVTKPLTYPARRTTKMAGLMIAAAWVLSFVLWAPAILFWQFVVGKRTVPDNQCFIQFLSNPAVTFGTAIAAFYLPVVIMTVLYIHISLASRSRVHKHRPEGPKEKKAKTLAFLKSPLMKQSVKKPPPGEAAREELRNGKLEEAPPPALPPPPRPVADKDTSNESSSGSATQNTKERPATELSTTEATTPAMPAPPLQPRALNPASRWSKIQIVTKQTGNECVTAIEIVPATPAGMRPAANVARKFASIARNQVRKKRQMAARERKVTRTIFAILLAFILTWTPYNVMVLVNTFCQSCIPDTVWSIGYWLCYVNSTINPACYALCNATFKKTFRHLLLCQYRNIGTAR

Cytochrome P450 2A6 = biological target: T4, Cytochrome P450 2A6 (Homo sapiens, UniProt P11509); conditions: bti-tn-5b1-4; further: in other assays of this panel Not Active means under 50% inhibition at 10 µM
T4 sequence (P11509 whole entry): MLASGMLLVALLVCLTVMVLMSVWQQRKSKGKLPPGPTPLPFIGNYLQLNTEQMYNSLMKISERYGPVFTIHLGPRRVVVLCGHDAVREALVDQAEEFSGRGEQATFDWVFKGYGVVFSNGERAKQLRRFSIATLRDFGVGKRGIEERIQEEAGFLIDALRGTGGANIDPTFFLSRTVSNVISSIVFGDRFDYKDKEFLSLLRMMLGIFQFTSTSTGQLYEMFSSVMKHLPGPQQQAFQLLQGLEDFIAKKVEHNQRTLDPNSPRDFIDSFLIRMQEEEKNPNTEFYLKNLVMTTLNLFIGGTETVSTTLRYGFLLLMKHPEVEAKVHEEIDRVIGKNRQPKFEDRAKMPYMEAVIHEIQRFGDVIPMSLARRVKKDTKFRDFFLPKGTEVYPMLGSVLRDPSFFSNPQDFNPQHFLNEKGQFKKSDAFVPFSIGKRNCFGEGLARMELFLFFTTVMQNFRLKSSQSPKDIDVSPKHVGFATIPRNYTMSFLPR

Row | Structure (SMILES) | IC50 ([1]; sf9) | IC50 [2] | IC50 ([3]; platelet) | IC50 (D(3) dopamine receptor; cho) | IC50 ([4]; cho-k1) | IC50 (Cytochrome P450 2A6) | Ki (Cytochrome P450 2A6) | IC50 ([1]; read-out: IC50) | Ki [1] | IC50 (D(3) dopamine receptor; read-out: IC50) | Ki (D(3) dopamine receptor) | IC50 ([4]; read-out: IC50) | Ki [4] | IC50 ([3]; read-out: IC50)
1 | C[C@H]1c2cccc(O)c2C(=O)C2=C(O)[C@]3(O)C(=O)C(C(N)=O)=C(O)[C@@H](N(C)C)[C@@H]3[C@@H](O)[C@@H]21.O [DOXYCYCLINE] | Not Active | Not Active | Not Active | Not Active | Not Active | Not Active | Not Active | – | – | – | – | – | – | –
2 | O=C(CCCN1CC=C(n2c(=O)[nH]c3ccccc32)CC1)c1ccc(F)cc1 [DROPERIDOL] | – | Not Active | Not Active | – | – | Not Active | Not Active | 1760 nM | 256 nM | 2.77 nM | 0.939 nM | 3850 nM | 537 nM | –
3 | CC(C)[C@H]1C(=O)N2CCC[C@H]2[C@]2(O)O[C@](NC(=O)[C@@H]3C=C4c5cccc6[nH]cc(c56)C[C@H]4N(C)C3)(C(C)C)C(=O)N12 [ERGOCORNINE] | – | Not Active | Not Active | – | Not Active | Not Active | Not Active | 17 nM | 2.41 nM | 2.86 nM | 0.971 nM | – | – | –
4 | OC(Cn1cncn1)(Cn1cncn1)c1ccc(F)cc1F [FLUCONAZOLE] | Not Active | Not Active | Not Active | Not Active | Not Active | Not Active | Not Active | – | – | – | – | – | – | –
5 | CC(C)C(=O)Nc1ccc([N+](=O)[O-])c(C(F)(F)F)c1 [FLUTAMIDE] | Not Active | Not Active | Not Active | Not Active | Not Active | Not Active | Not Active | – | – | – | – | – | – | –
6 | CC1(C)O[C@@H]2C[C@H]3[C@@H]4CCC5=CC(=O)CC[C@]5(C)[C@@]4(F)[C@@H](O)C[C@]3(C)[C@]2(C(=O)CCl)O1 [HALCINONIDE] | Not Active | Not Active | Not Active | Not Active | Not Active | Not Active | Not Active | – | – | – | – | – | – | –
7 | O=c1[nH]c(=O)n([C@H]2C[C@H](O)[C@@H](CO)O2)cc1I [IDOXURIDINE] | Not Active | Not Active | Not Active | Not Active | Not Active | Not Active | Not Active | – | – | – | – | – | – | –
8 | CC1Cc2ccccc2N1NC(=O)c1ccc(Cl)c(S(N)(=O)=O)c1 (stereo unspecified) [INDAPAMIDE] | Not Active | Not Active | Not Active | Not Active | Not Active | Not Active | Not Active | – | – | – | – | – | – | –
9 | Nc1nc(N)nc(-c2cc(Cl)ccc2Cl)n1.O=C(O)/C=C\C(=O)O [IRSOGLADINE MALEATE] | Not Active | Not Active | Not Active | Not Active | Not Active | Not Active | Not Active | – | – | – | – | – | – | –
10 | CCC(C)n1ncn(-c2ccc(N3CCN(c4ccc(OCC5COC(Cn6cncn6)(c6ccc(Cl)cc6Cl)O5)cc4)CC3)cc2)c1=O (stereo unspecified) [ITRACONAZOLE] | Not Active | Not Active | Not Active | Not Active | Not Active | Not Active | Not Active | – | – | – | – | – | – | –
11 | CCCCN1CCCC[C@H]1C(=O)Nc1c(C)cccc1C [LEVOBUPIVACAINE] | Not Active | Not Active | Not Active | Not Active | Not Active | Not Active | Not Active | – | – | – | – | – | – | –
12 | CCCCc1nc(Cl)c(CO)n1Cc1ccc(-c2ccccc2-c2nnn[nH]2)cc1 [LOSARTAN] | Not Active | Not Active | Not Active | Not Active | Not Active | Not Active | Not Active | – | – | – | – | – | – | –
13 | Sc1ncnc2nc[nH]c12 [MERCAPTOPURINE ANHYDROUS] | Not Active | Not Active | – | Not Active | Not Active | Not Active | Not Active | – | – | – | – | – | – | 16200 nM
14 | C[C@](N)(Cc1ccc(O)c(O)c1)C(=O)O [METHYLDOPA] | Not Active | Not Active | Not Active | Not Active | Not Active | Not Active | Not Active | – | – | – | – | – | – | –
15 | C[C@]12CCC(=O)C=C1CC[C@@H]1[C@@H]2CC[C@@]2(C)[C@H]1CC[C@]2(C)O [METHYLTESTOSTERONE] | Not Active | Not Active | Not Active | Not Active | Not Active | Not Active | Not Active | – | – | – | – | – | – | –
16 | Cc1ccccc1N1C(=O)c2cc(S(N)(=O)=O)c(Cl)cc2NC1C (stereo unspecified) [METOLAZONE] | Not Active | Not Active | Not Active | Not Active | Not Active | Not Active | Not Active | – | – | – | – | – | – | –
17 | COCCc1ccc(OCC(O)CNC(C)C)cc1 (stereo unspecified) [METOPROLOL] | Not Active | Not Active | Not Active | Not Active | Not Active | Not Active | Not Active | – | – | – | – | – | – | –
18 | CCn1cc(C(=O)O)c(=O)c2cc(F)c(N3CCNCC3)cc21 [NORFLOXACIN] | Not Active | Not Active | Not Active | Not Active | Not Active | Not Active | Not Active | – | – | – | – | – | – | –
19 | NC1=NC(=O)C(c2ccccc2)O1 (stereo unspecified) [PEMOLINE] | Not Active | Not Active | Not Active | Not Active | Not Active | Not Active | Not Active | – | – | – | – | – | – | –
20 | Nc1nc2c(ncn2CCC(CO)CO)c(=O)[nH]1 [PENCICLOVIR] | Not Active | Not Active | Not Active | Not Active | Not Active | Not Active | Not Active | – | – | – | – | – | – | –
21 | C=C(C)C1(O)OC(=O)C=C1OC (stereo unspecified) [PENICILLIC ACID] | Not Active | Not Active | Not Active | Not Active | Not Active | Not Active | Not Active | – | – | – | – | – | – | –
22 | C1CCC(C(CC2CCCCN2)C2CCCCC2)CC1 (stereo unspecified) [PERHEXILINE] | Not Active | Not Active | Not Active | Not Active | – | Not Active | Not Active | – | – | – | – | 3590 nM | 501 nM | –
23 | CCOc1ccc(NC(C)=O)cc1 [PHENACETIN] | Not Active | Not Active | Not Active | Not Active | Not Active | Not Active | Not Active | – | – | – | – | – | – | –
24 | CNNCc1ccc(C(=O)NC(C)C)cc1 [PROCARBAZINE] | Not Active | Not Active | Not Active | Not Active | Not Active | Not Active | Not Active | – | – | – | – | – | – | –
25 | CN(C)CCCN1c2ccccc2Sc2ccccc21 [PROMAZINE] | – | Not Active | Not Active | – | – | Not Active | Not Active | 253 nM | 37 nM | 205 nM | 69 nM | 299 nM | 42 nM | –
26 | CC(O)CO (stereo unspecified) [PROPYLENE GLYCOL] | Not Active | Not Active | Not Active | Not Active | Not Active | Not Active | Not Active | – | – | – | – | – | – | –
